Experimental data reported in publication PMC3439832 (Journal of agricultural and food chemistry, 2011).
In brackets after ≈: the same amount, converted by molar mass. Several values for one entry are separate records, joined by “and”; a condition that tells them apart may be missing. Identical values can stand only once.

Assays:
[1] = test system: anti-p,p′-DDE antibody (mouse polyclonal antibody, sera); assay: indirect competitive ELISA; format: binding; details: for % cross-reactivity: (IC50 p,p′-DDE/IC50 chemicals) × 100
human tissues = details: in human tissues; cited from earlier work
[2] = sera of mouse P3 at day 80, before the ELISA was optimized

With `OC(c1ccc(Cl)cc1)c1ccc(Cl)cc1` [DCBH] as the compound, how does the “% cross-reactivity” value ([1]; pooled mouse sera) read?
The value was 9.25%.

And the IC50 ([1]; pooled mouse sera, ic-ELISA)?
The IC50 was 0.2433 µg/mL (≈ 0.961 µM).

For `OCC(c1ccc(Cl)cc1)c1ccc(Cl)cc1` [DDOH, 2,2′-bis(4-chlorophenyl)ethanol], which “% cross-reactivity” value ([1]; pooled mouse sera) is on record?
The value was 2.87%.

What about the IC50 ([1]; pooled mouse sera, ic-ELISA) of the same compound?
The IC50 was 0.785 µg/mL (≈ 2.94 µM).

For `OC(c1ccc(Cl)cc1)(c1ccc(Cl)cc1)C(Cl)(Cl)Cl` [dicofol], which IC50 ([1]; pooled mouse sera, ic-ELISA) is on record?
Its IC50 is over 22.5 µg/mL.

For `Clc1ccc(C(c2ccccc2Cl)C(Cl)Cl)cc1` (stereo not shown) [o,p′-DDD], which “% cross-reactivity” value ([1]; pooled mouse sera) is on record?
The value was 5.00%.

And the IC50 ([1]; pooled mouse sera, ic-ELISA)?
The IC50 was 0.45 µg/mL (≈ 1.41 µM).

For `ClC(Cl)=C(c1ccc(Cl)cc1)c1ccccc1Cl` [o,p′-DDE], which “% cross-reactivity” value ([1]; pooled mouse sera) is on record?
The value was 0.64%.

What about the IC50 ([1]; pooled mouse sera, ic-ELISA) of the same compound?
Its IC50 is 3.5 µg/mL (≈ 11 µM).

With `Clc1ccc(C(c2ccccc2Cl)C(Cl)(Cl)Cl)cc1` (stereo not shown) [o,p′-DDT] as the compound, how does the IC50 ([1]; pooled mouse sera, ic-ELISA) read?
Its IC50 is over 20 µg/mL.

For `O=C(c1ccc(Cl)cc1)c1ccc(Cl)cc1` [p,p′-DBP], which “% cross-reactivity” value ([1]; pooled mouse sera) is on record?
Its value is 0.27%.

What about the IC50 ([1]; pooled mouse sera, ic-ELISA) of the same compound?
The IC50 was 8.357 µg/mL (≈ 33.3 µM).

Which results are given for `O=C(O)C(c1ccc(Cl)cc1)c1ccc(Cl)cc1` [p,p′-DDA]?
% cross-reactivity ([1]; pooled mouse sera): 0.28%; IC50 ([1]; pooled mouse sera, ic-ELISA): 8.025 µg/mL (≈ 28.5 µM)

For `Clc1ccc(C(c2ccc(Cl)cc2)C(Cl)Cl)cc1` [p,p′-DDD], which “% cross-reactivity” value ([1]; pooled mouse sera) is on record?
Its value is 112.5%.

And the IC50 ([1]; pooled mouse sera, ic-ELISA)?
Its IC50 is 0.02 µg/mL (≈ 0.0625 µM).

Which half-life (human tissues) does the source give for `ClC(Cl)=C(c1ccc(Cl)cc1)c1ccc(Cl)cc1` [p,p′-DDE, 1,1-Dichloro-2,2-bis(p-chlorophenyl) ethylene] here?
The half-life was 7–11 years.

And the IC15 ([1]; developed ic-ELISA system)?
The IC15 was 0.0096 ± 0.0244 µg/mL and 0.0096 µg/mL.

And the IC50 ([1]; g-DDOH-OVA as coating antigen)?
The IC50 was 0.69 µg/mL (≈ 2.17 µM).

What about the “% cross-reactivity” value ([1]; pooled mouse sera) of the same compound?
Its value is 100%.

And the IC50 ([1]; pooled mouse sera, ic-ELISA)?
The IC50 was 0.0225 µg/mL (≈ 0.0707 µM).

And the IC50 ([1]; s-DCBH-OVA as coating antigen)?
Its IC50 is 0.06 µg/mL (≈ 0.189 µM).

What about the IC50 [1, 2] of the same compound?
Its IC50 is about 0.08 µg/mL (≈ 0.252 µM).

With `Clc1ccc(Cc2ccc(Cl)cc2)cc1` [p,p′-DDM] as the compound, how does the “% cross-reactivity” value ([1]; pooled mouse sera) read?
Its value is 59.7%.

And the IC50 ([1]; pooled mouse sera, ic-ELISA)?
The IC50 was 0.0377 µg/mL (≈ 0.159 µM).

What does the source list for `Clc1ccc(C(c2ccc(Cl)cc2)C(Cl)(Cl)Cl)cc1` [p,p′-DDT, 2,2-bis(p-chlorophenyl)-1,1,1-trichloroethane]?
% cross-reactivity ([1]; pooled mouse sera): 6.62%; IC50 ([1]; pooled mouse sera, ic-ELISA): 0.34 µg/mL (≈ 0.959 µM); IC50 [1, 2]: about 2.85 μg/mL
